Each structure is given as a SMILES string. “Also recorded” adds a separate entry of the source.

The target in experiment [1] is T1, gonococcal LOS sialyltransferase (Lst) (Neisseria gonorrhoeae, UniProt P72074).
T1 construct: served as substrates for gonococcal Lst in the context of live bacteria; endogenous in cells; host or cells: N. gonorrhoeae F62 ΔlgtD (live bacteria)
The experiment is classed as cell-based, N. gonorrhoeae. Conditions: CMP salt 30 μM (20 μg/ml), 2 h at 37° C. On the procedure:
FIG. 1. Substrate specificity of gonococcal LOS sialyltransferase (Lst) N. gonorrhoeae strain F62 ΔIgtD was grown in standard gonococcal liquid media alone (‘No sialic acid’) or in media supplemented with CMP salts of the indicated sialic acid or nonulosonic acid, each at a concentration of 20 μg/ml (˜30 μM), for 2 h at 37° C. Bacteria were washed, pellets treated with protease K, lysed in 4×LDS buffer and lysates were separated on 12% Bis-Tris gels using MES running buffer. LOS was transferred to a PVDF membrane and probed with mAb 3F11 that recognizes the lacto-N-neotetraose only in the non-sialylated state; the addition of a sialic acid or nonulosonate residue abrogates mAb 3F11 binding (upper panel). LOS was also visualized by silver staining (middle panel). Sialylation or nonulosonate (NulO) modification was also quantified using whole cell ELISA with mAb 3F11 (lower graph).
To define the substrate specificity of gonococcal LOS sialyltransferase, N. gonorrhoeae F62 ΔIgtD was grown in media alone, or media that contained the CMP-activated derivatives of 7 nonulosonates (listed in Table 1), each at a concentration of 30 μM (20 μg/ml). Following incubation for 2 h at 37° C., bacteria were washed, lysed with protease K/LDS sample buffer and separated on 12% Bis-tris gels. Blots were probed with mAb 3F11, which binds to the terminal lactosamine residue of lacto-N-neotetraose (LNT); any extension beyond the terminal Gal (in this instance with a nonose) would abrogate 3F11 binding. […] Whole cell ELISA with mAb 3F11 confirmed results of western blotting (FIG. 1, lower graph).
Bacteria (F62 ΔIgtD) grown overnight on chocolate agar plates were suspended in gonococcal liquid media supplemented with IsoVitaleX (11) that contained specified concentrations of the CMP-nonulosonate. Bacteria were then incubated at 37° C. for the period specified in each experiment.
Gonococcal lysates treated with protease K (100 μg/ml) and NuPAGE® LDS Sample Buffer (4×) (Invitrogen) were separated on NuPAGE® 12% Bis-Tris (Invitrogen) gels using Novex® MES running buffer (Invitrogen) followed by sliver staining with the Bio-Rad Silver Stain Kit, or were transferred to an Immobilon PVDF membrane (Millipore). Membranes were blocked with PBS/1% milk and probed with tissue culture supernatants that contained mAb 3F11. mAb 3F11-reactive LOS bands were disclosed with anti-mouse IgM conjugated to alkaline phosphatase followed by the addition of BCIP®/NBT-Purple Liquid Substrate (Sigma).

Experiment [2] relates to N. gonorrhoeae F62 ΔIgtD. The experiment is classed as cell-based. As to the method: FIG. 2. […] N. gonorrhoeae F62 ΔIgtD was grown in media alone (no CMP-sialic acid added), or media that contained 20 μg/ml (˜30 μM) of each of the indicated CMP-nonulosonates. Resistance of bacteria to complement-dependent killing in the presence of 3.3%, 6.7% or 10% normal human serum (NHS) was measured in serum bactericidal assays.
FIG. 5. […] N. gonorrhoeae F62 ΔIgtD was suspended in media containing 20 μg/ml (˜30 μM) CMP-Neu5Ac. Following 15 min of incubation at 37° C., CMP-Neu5Ac9Az or CMP-Leg5Ac7Ac (at concentrations of 20, 2 or 0.2 μg/ml final) were added and bacteria were incubated for 2 h. Serum bactericidal assays were then performed using 3.3% (solid black bars) or 10% (hatched bars) NHS. Controls included bacteria in media that lacked any CMP-nonulosonate, or bacteria that were incubated in CMP-Neu5Ac only. Y-axis, % survival.
We next determined the effects of incorporation of the CMP salts of five structural analogues of Neu5Ac (Neu5Gc, Neu5Ac9Ac, Neu5Ac9Az, Neu5Gc8Me and Leg5Ac7Ac) on the ability of N. gonorrhoeae F62 ΔIgtD to resist complement-dependent killing by normal human serum at concentrations of 10, 6.7 or 3.3%. Bacteria were grown either in media alone, or media supplemented with 30 μM (˜20 μg/ml) of each of the CMP-nonulosonates.
The ability of two of the CMP-nonulosonates, CMP-Neu5Ac9Az and CMP-Leg5Ac7Ac, to counter the ability of CMP-Neu5Ac to enhance serum resistance of N. gonorrrhoeae was then examined. The analogues were added at concentrations of 20, 2 or 0.2 μg/ml to growth media 15 min after the addition of CMP-Neu5Ac (20 μg/ml) to F62 ΔIgtD.
Serum bactericidal assays were performed as described previously (11). Bacteria harvested from an overnight culture on chocolate agar plates were grown in liquid media containing the specified concentration of CMP-nonulosonate as specified for each experiment. Approximately 2000 CFU of F62 ΔIgtD were incubated with NHS (concentration specified for each experiment). The final reaction volumes were maintained at 150 μl. […]

Experiment [3] has as its system N. gonorrhoeae F62 ΔIgtD. The experiment in a line: Flow cytometry for factor H binding to bacteria. The experiment is classed as cell-based. On the procedure: FIG. 3. Effects of LOS modification with various nonulosonate analogues on fH binding to N. gonorrhoeae. N. gonorrhoeae F62 ΔIgtD was grown in media alone, or media supplemented with 20 μg/ml (˜30 μM) of each of the indicated CMP-nonulosonates. Binding of bacteria to fH (10 μg/ml) was measured by flow cytometry using polyclonal goat anti-human fH. The control indicates reaction mixtures that lacked fH. Y-axis, median fluorescence of fH binding. The mean (SD) of 2 independent repeats is shown.
FIG. 7. […] A. N. gonorrhoeae F62 ΔIgtD was incubated in media containing CMP-Neu5Ac (20 μg/ml), followed […] by the addition of either CMP-Neu5Ac9Az or CMP-Leg5Ac7Ac (20, 2 or 0.2 μg/ml). Bacteria were grown for 2 h and fH binding detected by FACS using polyclonal goat anti-human fH. The Y-axis represents median fluorescence. The mean (SEM) of two independent observations is shown. B. Development of serum resistance lags behind fH binding when measured as a function of time of exposure of bacteria to CMP-Neu5Ac. CMP-Neu5Ac (20 μg/ml) was added to media containing F62 ΔIgtD and bacteria were taken at the time points indicated on the X-axis and assayed for fH binding by FACS with anti-fH mAb 90× (left Y-axis; median fluorescence (SEM)), or tested for its ability to resist killing by 10% NHS (right Y-axis; percent survival). The data represent 2-3 independent experiments. C. Representative histograms of a fH binding FACS experiment.
The addition of a terminal Neu5Ac residue to LNT-expressing LOS enhances binding of the alternative pathway inhibitor, factor H, which contributes to the ability of sialylated gonococci to resist killing by complement (7). fH binding to N. gonorrhoeae F62 ΔIgtD grown in the presence of each of the CMP-nonulosonates (20 μg/ml or 30 μM) was examined (FIG. 3). […] Reducing the CMP-nonulosonate concentrations in growth media to 2 μg/ml (3 μM) yielded similar fH binding results (FIG. 9B). Further, modification of LOS with Neu5Ac or Neu5Gc yielded similar amounts of fH binding over CMP-sialic acid concentrations ranging from 0.5 to 4 μg/ml, with near maximal fH binding observed even at the lowest concentration tested (FIG. 9C).
fH binding to bacteria was performed using flow cytometry as described previously (14). Briefly, bacteria (F62 ΔIgtD) were harvested from chocolate agar plates and grown in liquid media that contained the specified concentration of the CMP-nonulosonate as described above. Bacteria were then washed with Hanks Balanced Salt Solution (HBSS) containing 1 mM Ca^2+ and 1 mM Mg^2+ (HBSS^++) and incubated with fH purified from human plasma (Complement Technology, Inc.; concentration specified for each experiment). Bound fH was detected using either anti-fH mAb (Quidel, catalog no. A254 (mAb 90×)) or goat anti-human fH, followed by FITC conjugated anti-mouse IgG or anti-goat IgG, respectively (Sigma); both Abs had similar performance characteristics. All reaction mixtures were carried out in HBSS^++/1% BSA in a final volume of 50 μl. Flow cytometry was performed using a FACSCalibur instrument (Becton Dickinson) and data were analyzed using FlowJo (version 7.2.5; Tree Star, Inc.).
On the technique in general: A flow cytometer gives signals particle by particle.

T1 sequence (P72074 whole entry): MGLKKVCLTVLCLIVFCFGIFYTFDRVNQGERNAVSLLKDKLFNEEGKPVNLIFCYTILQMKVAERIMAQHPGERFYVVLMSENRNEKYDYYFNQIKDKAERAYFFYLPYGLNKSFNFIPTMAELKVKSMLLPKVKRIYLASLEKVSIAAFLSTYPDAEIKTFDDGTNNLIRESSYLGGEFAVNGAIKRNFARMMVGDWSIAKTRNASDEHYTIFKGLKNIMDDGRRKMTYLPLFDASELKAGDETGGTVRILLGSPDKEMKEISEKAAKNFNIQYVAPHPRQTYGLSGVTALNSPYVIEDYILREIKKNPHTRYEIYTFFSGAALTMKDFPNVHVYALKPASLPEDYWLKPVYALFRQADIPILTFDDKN

As to `CC(=O)N[C@H]([C@@H]1O[C@](OP(=O)(O)OC[C@H]2O[C@@H](n3ccc(N)nc3=O)[C@H](O)[C@@H]2O)(C(=O)O)C[C@H](O)[C@@H]1NC(C)=O)[C@H](C)O` [CMP-Pse5Ac7Ac, reference compound], the “mAb 3F11 binding / incorporation of nonulosonate onto LNT LOS (use as Lst substrate)” value in experiment [1] was “not incorporated; also recorded: not utilized”. Besides, in the experiment with N. gonorrhoeae F62 ΔIgtD [2] (all serum concentrations tested (10, 6.7, 3.3%), 30 μM), the “bacterial survival / serum resistance” value is reported as “did not affect serum resistance”.

Regarding `Nc1ccn([C@@H]2O[C@H](COP(=O)(O)O[C@@]3(C(=O)O)C[C@H](O)[C@@H](NC(=O)CO)[C@H]([C@H](O)[C@H](O)CO)O3)[C@@H](O)[C@H]2O)c(=O)n1` [CMP-Neu5Gc, CMP-5-hydroxyacetamido-3,5-dideoxy-D-glycero-D-galacto-nonulosonic acid, reference compound], the “mAb 3F11 binding / incorporation of nonulosonate onto LNT LOS (use as Lst substrate)” value in experiment [1] is listed as “decreased binding of mAb 3F11”. Also, the “resistance to 10% serum” value in the experiment on N. gonorrhoeae F62 ΔIgtD [2] (CMP-nonulosonate 3 μM (~2 μg/ml), 10% serum) was “conferred resistance”. Moreover, in the experiment on N. gonorrhoeae F62 ΔIgtD [2] (summary Table 1), the Serum resistance result is “high (>100% survival in 10% serum)”. Besides, the fH binding entry with N. gonorrhoeae F62 ΔIgtD [3] (CMP-nonulosonate 20 μg/ml or 30 μM, vs unsialylated F62 ΔIgtD) is on record as “Maximal”; in the experiment on N. gonorrhoeae F62 ΔIgtD [3] (CMP-sialic acid 0.5 to 4 μg/ml, lowest concentration tested), “near maximal”; with N. gonorrhoeae F62 ΔIgtD [3] (summary Table 1) it was “high”.

The values above are taken from patent publication US10865222B2, “Neisseria gonorrhoeae therapeutic based on CMP-nonulosonate sugars” (priority 2014, dated 2020).
